Where two headings read alike, the source gives them in different places. Marks after values point to notes of the source that are not given here.
Tests used:
[1] = rabbit plasma, 37° C., HPLC
Experimental: (§1) 0.1 ml samples were taken from each of the solutions, added respectively to 1 ml of blood plasma of rabbit (taken from New Zealand white rabbits, treated according to conventional methods, anticoagulated with heparin) or 1 ml of blood plasma of rat (taken from live SD rats, processed according to conventional methods, anti coagulated with heparin), homogeneously mixed, and placed in a thermostatic water bath at 37° C. for incubation with time being recorded. Samples were taken at different time points after the experiment began, and 2 ml of acetonitrile was immediately added. The samples were shaken and centrifuged for 5 min (15,000 rpm), and the supernatant was then taken for HPLC analysis.

[2] = rat plasma, 37° C., HPLC
Experimental: as §1

Kunming mice = conditions: tail intravenous injection, n = 5
Experimental: Rats and mice were administered with samples having a fixed concentration of drugs, while the volume of administration altered according to actual situation. The volume of administration to rabbits was 1 mL/kg body weight.
The periods during which the righting reflex of mice disappeared (latent period) and recovered (persistent period) were recorded.

SD rats = conditions: for TI Rat: TI=LD50/ED50, rat; for Rat ED50: disappearance of righting reflex, caudal vein injection
Experimental: (§2) Test samples for the experiment on rabbit were formulated to have corresponding concentrations based on the results from a preliminary test. […] Rats and mice were administered with samples having a fixed concentration of drugs, while the volume of administration altered according to actual situation. The volume of administration to rabbits was 1 mL/kg body weight.
(§3) ED50 and LD50 values concerning anesthesia were determined using a sequential method. Healthy KM mice (male), SD rats (male) and New Zealand White rabbits were used for test. […] For rabbits, the compounds were administered by injection at a constant rate via ear vein for 30 seconds. Before the test, a preliminary test was conducted to determine an approximate dosage (volume of administration) that leads to anesthetization (or death) of animals, which was set as the middle dosage in the formal test. […] The disappearance of righting reflex or death was used as indicators of pharmacological efficacy or toxicity, respectively. The formal test began with the administration of the middle dosage. If animals were anesthetized, a lower dosage was administered; if animals were not anesthetized, a higher dosage was administered, until the cycle was repeated for 3-4 times. LD50 and ED50 were calculated by a sequential method aot425 software. TI was calculated according to the following equation: TI=LD50/ED50.

[3] = system: New Zealand White rabbits; conditions: TI=LD50/ED50, rabbit
Experimental: as §2, §3

KM mice = conditions: for TI Mouse: TI=LD50/ED50, mouse; for Mouse ED50: disappearance of righting reflex, caudal vein injection
Experimental: as §2, §3

in vivo [4] = conditions: male, SD, rat, intravenous, caudal vein injection
Experimental: as §2, §3

in vivo [5] = conditions: male, KM, mouse, intravenous, caudal vein injection, confirmation test
Experimental: as §2, §3

[6] = dosage 2 * ED50, 3 mg/ml solution
[7] = dosage 2 * ED50, 6 mg/ml solution
[8] = 3 mg/ml solution, confirmation test
[9] = 3 mg/ml solution, first test (*)
[10] = 6 mg/ml solution, confirmation test
[11] = 6 mg/ml solution, first test (*)

Row | Compound | Dissociation percent 15 s [1] | Dissociation percent 30 s [1] | Dissociation percent 5 s [2] | Dissociation percent 15 s [2] | also measured
1 | CCN(C)CCC(F)C(=O)Oc1c(C(C)C)cccc1C(C)C.Cl (racemic) [E4, propofol 4-N-methyl-N-ethylamino-2-(R,S)-2-fluorobutyrate hydrochloride] | 58.3% | 70.4% | 70.2% | – | –
2 | CC(C)NCC(CF)C(=O)Oc1c(C(C)C)cccc1C(C)C.CS(=O)(=O)O (racemic) [E6, propofol 3-N-isopropylamino-2-(R,S)-2-monofluoromethylpropionate methanesulfonate] | 27.1% | 44.3% | 24.2% | 40.1% | –
3 | CC(C)c1cccc(C(C)C)c1OC(=O)C(F)CCCCCC(=O)[O-].CC(C)c1cccc(C(C)C)c1OC(=O)C(F)CCCCCC(=O)[O-].[Ca+2] (racemic) [F4, di[propofol 7-carboxyl-2-(R,S)-fluorocaprylate] calcium salt] | 48.3% | 61.7% | 63.8% | – | –
4 | CC(C)c1cccc(C(C)C)c1OC(=O)C(CF)CCCCCCC(=O)[O-].CC(C)c1cccc(C(C)C)c1OC(=O)C(CF)CCCCCCC(=O)[O-].CC(C)c1cccc(C(C)C)c1OC(=O)C(CF)CCCCCCC(=O)[O-].[Al+3] (racemic) [F6, tri[propofol 8-carboxyl-2-(R,S)-monofluoromethylpelargonate] aluminum salt] | 37.1% | 58.3% | 34.2% | 55.7% | –
5 | CC(C)c1cccc(C(C)C)c1OC(=O)C(F)CCOP(=O)([O-])[O-].[K+].[K+] (racemic) [G1, {1-[4-(2,6-diisopropylphenoxy)-4-oxo-3-(R,S)-3-fluoro-1-butyl]} phosphate monoester dipotassium salt] | 43.7% | 68.7% | 54.1% | 67.4% | Dissociation percent 30 s [2]: 86.9%
6 | CC(C)c1cccc(C(C)C)c1OC(=O)C(CF)CP(=O)([O-])[O-].CC(C)c1cccc(C(C)C)c1OC(=O)C(CF)CP(=O)([O-])[O-].CC(C)c1cccc(C(C)C)c1OC(=O)C(CF)CP(=O)([O-])[O-].[Al+3].[Al+3] (racemic) [G6, tri[propofol 3-phosphoryl-2-(R,S)-2-monofluoromethylpropionate] dialuminum salt] | 27.1% | 44.3% | 22.1% | 39.7% | –
7 | CC(C)c1cccc(C(C)C)c1OC(=O)[C@H](F)CCN(C)C.Cl [E2, Propofol 4-(N,N-dimethyl)amino-2-(R)-fluorobutyrate hydrochloride] | 97.7% | 100% | 100% | – | Latent Period (Kunming mice; [6]): 14.6 ± 0.9 s; Persistent period (Kunming mice; [6]): 383.6 ± 242.1 s; Latent Period (Kunming mice; [7]): 14.2 ± 1.9 s; Persistent period (Kunming mice; [7]): 543 ± 231 s; TI Rat (SD rats; 3 mg/ml solution): 3.8; TI Rat (SD rats; 6 mg/ml solution): 3.1; Rat ED50 (SD rats; 3 mg/ml solution): 9.8 mg/kg; Rat ED50 (SD rats; 6 mg/ml solution): 10.1 mg/kg; TI index [3]: 3.5; TI Mouse (KM mice; [8]): 3; TI Mouse (KM mice; [9]): 4*; TI Mouse (KM mice; [10]): 3.7; TI Mouse (KM mice; [11]): 3.6*; Mouse ED50 (KM mice; [8]): 15.4 mg/kg; Mouse ED50 (KM mice; [9]): 17.9 mg/kg; Mouse ED50 (KM mice; [10]): 13.0 mg/kg; Mouse ED50 (KM mice; [11]): 15.2 mg/kg
8 | CC(C)c1cccc(C(C)C)c1OC(=O)[C@@H](CCN(C)C)C(F)(F)F.Cl [E3, propofol 4-N,N-dimethylamino-2-(R)-2-trifluoromethylbutyrate hydrochloride] | 51.7% | 67.2% | 77.5% | – | –
9 | CC(C)c1cccc(C(C)C)c1OC(=O)[C@@H](F)CCCN(C)Cc1ccccc1.Cl [E5, propofol 5-N-methyl-N-benzylamino-2-(S)-2-fluorovalerate hydrochloride] | 48.4% | 69.7% | 72.3% | 97.3% | –
10 | CC(C)c1cccc(C(C)C)c1OC(=O)[C@@H](F)CCN1CC1.Cl [E7, propofol 4-(aziridin-1-yl)-2-(S)-2-fluorobutyrate hydrochloride] | 89.4% | 94.4% | 92.3% | – | –
11 | CC(C)c1cccc(C(C)C)c1OC(=O)[C@H](F)CCN1CCCC1.Cl [E8, propofol 4-(pyrrolidin-1-yl)-2-(R)-2-fluorobutyrate hydrochloride] | 91.1% | 98.2% | 95.6% | – | –
12 | CC(C)c1cccc(C(C)C)c1OC(=O)C(F)CCC(=O)[O-].[K+] [F2, propofol 4-carboxyl-2-(S)-fluorovalerate potassium salt] | 73.4% | 94.8% | 92.3% | – | –
13 | CC(C)c1cccc(C(C)C)c1OC(=O)C(CCC(=O)[O-])C(F)(F)F.[Li+] [F3, propofol 4-carboxyl-2-(R)-2-trifluoromethyl valerate lithium salt] | 28.4% | 47.9% | 47.4% | – | –
14 | CC(C)c1cccc(C(C)C)c1OC(=O)C(F)CCCC(=O)[O-].CC(C)c1cccc(C(C)C)c1OC(=O)C(F)CCCC(=O)[O-].[Zn+2] [F5, di[propofol 5-carboxyl-2-(S)-fluorohexanoate] zinc salt] | 34.9% | 58.8% | 63.2% | 80.3% | –
15 | CC(C)c1cccc(C(C)C)c1OC(=O)C(F)CC(=O)[O-].[Na+] [F7, Propofol-2-(R)-fluorobutyrate monoester sodium salt] | 46.3% | 72.8% | 58.8% | 71.3% | Latent Period (Kunming mice; [6]): 20.2 ± 0.6 s; Persistent period (Kunming mice; [6]): 335.5 ± 218.1 s; Latent Period (Kunming mice; [7]): 16.2 ± 2.2 s; Persistent period (Kunming mice; [7]): 517 ± 231 s; TI Rat (SD rats; 3 mg/ml solution): 3.0; TI Rat (SD rats; 6 mg/ml solution): 3.5; Rat ED50 (SD rats; 3 mg/ml solution): 15.7 mg/kg; Rat ED50 (SD rats; 6 mg/ml solution): 12.5 mg/kg; TI index [3]: 2.6; TI Mouse (KM mice; [8]): 2.6; TI Mouse (KM mice; [9]): 2.8*; TI Mouse (KM mice; [10]): 3.1; TI Mouse (KM mice; [11]): 2.4*; Mouse ED50 (KM mice; [8]): 19.2 mg/kg; Mouse ED50 (KM mice; [9]): 21.4 mg/kg; Mouse ED50 (KM mice; [10]): 18.1 mg/kg; Mouse ED50 (KM mice; [11]): 20.7 mg/kg; Dissociation percent 30 s [2]: 85.4%
16 | CC(C)c1cccc(C(C)C)c1OC(=O)C(F)C(=O)[O-].[Na+] [F8, Propofol-2-(R)-fluoropropionate monoester sodium salt] | 41.2% | 70.4% | 55.5% | 69.3% | Dissociation percent 30 s [2]: 83.3%
17 | CC(C)c1cccc(C(C)C)c1OC(=O)[C@@H](F)CCOP(=O)([O-])[O-].[Na+].[Na+] [G2, {1-[4-(2,6-diisopropylphenoxy)-4-oxo-3-(S)-3-fluoro-1-butyl]} phosphate monoester disodium salt] | 37.2% | 54.3% | 48.5% | 69.7% | Latent Period (Kunming mice; [6]): 16.3 ± 0.8 s; Persistent period (Kunming mice; [6]): 383.6 ± 242.1 s; Latent Period (Kunming mice; [7]): 15.7 ± 2.3 s; Persistent period (Kunming mice; [7]): 571 ± 173 s; TI Rat (SD rats; 3 mg/ml solution): 3.3; TI Rat (SD rats; 6 mg/ml solution): 2.8; Rat ED50 (SD rats; 6 mg/ml solution): 21.1 mg/kg; TI Mouse (KM mice; [8]): 3.0; TI Mouse (KM mice; [9]): 2.8*; TI Mouse (KM mice; [10]): 2.3; TI Mouse (KM mice; [11]): 1.9*; Mouse ED50 (KM mice; [8]): 19.8 mg/kg; Mouse ED50 (KM mice; [9]): 23.7 mg/kg; Mouse ED50 (KM mice; [10]): 22.8 mg/kg; Mouse ED50 (KM mice; [11]): 25.6 mg/kg
18 | CC(C)c1cccc(C(C)C)c1OC(=O)[C@@H](CCOP(=O)([O-])[O-])C(F)(F)F.[Li+].[Li+] [G3, {1-[4-(2,6-diisopropylphenoxy)-4-oxo-3-(R)-3-trifluoromethyl-1-butyl]} phosphate monoester dilithium salt] | 21.7% | 43.6% | 38.7% | – | –
19 | CC(C)c1cccc(C(C)C)c1O [Propofol, 2,6-diisopropylphenol] | – | – | – | – | LD50 (in vivo [4]; 3 mg/ml solution): 21.5 mg/kg; LD50 (in vivo [4]; 6 mg/ml solution): 17.4 mg/kg; TI Rat (SD rats; 3 mg/ml solution): 5.5; TI Rat (SD rats; 6 mg/ml solution): 4.9; TI Mouse (KM mice; [8]): 4.9; TI Mouse (KM mice; [10]): 3.8; LD50 (in vivo [5]; 3 mg/ml solution): 38.4 mg/kg; LD50 (in vivo [5]; 6 mg/ml solution): 42.9 mg/kg

— patent US9643917B2, “Water-soluble propofol derivatives and uses thereof” (JIANGSU NHWALUOKANG PHARMCEUTICAL RESEARCH AND DEVELOPMENT …, priority 2014, dated 2017)
